Data from patent US9814704B2, “Substituted pyrrolo[2,3-b]pyridines as MLK inhibitors” (The University of Rochester, priority 2008, dated 2017).
Read-outs that look alike come from different tables or passages of the source.

Experiments:
[1] = Pharmacokinetic Evaluation in Mice; type: in vivo; set-up: unit not given here; conditions: single intravenous (IV) injection at 10 mg/kg, CL57 BL/6 mice, brain homogenate
Protocol: Pharmacokinetic Evaluation in Mice
Several compounds disclosed herein were evaluated in a standard murine pharmacokinetic model.
Compounds were dissolved in either 5% DMSO, 40% PEG400, and 55% saline (pH=8) or […], 40% PEG400, and 55% (20% HP-β-CD in deionized water; pH=8) to yield a nominal concentration of 2 mg/mL for intravenous administration. Compounds were administered via a single intravenous (IV) injection in CL57 BL/6 mice at 10 mg/kg in DMSO/PEG400 solution. Three mice in each group were used for blood and brain collection at each time point. Blood samples (300 μL) were collected via the retro-orbital vein predose and at 5 min, 0.25, 0.50, 1, 2, 4, 6, 8, and 24 hours postdose. Blood samples were placed into tubes containing sodium heparin and centrifuged under refrigerated conditions at 8000 rpm for 6 minutes to separate plasma from the samples. The brain of each animal was collected after the final blood collection. The whole tissue was harvested, excised and rinsed by saline, dried by filter paper, and then placed into one tube per tissue per animal. All samples were stored at −20° C. until bioanalysis.
Compound concentrations in plasma and brain homogenate were determined using a high performance liquid chromatography/mass spectrometry (HPLC/MS/MS) method (Agilent 1100 series HPLC, AB Inc. API4000 triple-quadrupole with an ESI interface and Analyst 1.4 software).
Results in the form of area under the time-versus-concentration curve (AUC) are given below in Table 5.

MLK3 = MLK3 (Homo sapiens (Human), UniProt Q16584); assay: Radiometric Filter Plate MLK3 Assay; type: biochemical; conditions: read-out: MK3 IC50
Protocol: Radiometric Filter Plate MLK3 Assay
After a twenty minute incubation, the reactions were washed through filter plates and read on a scintillation counter. Results are shown in Table 4 below, in which +++ indicates ≦0.1 μM, ++ indicates >0.1 μM and ≦1 μM, and + indicates >1 μM.

[2] = 200 ng (130 nM) MLK3, 1 μM inactive MKK7b, 2 μM cold ATP (Km), 33P ATP, twenty minute incubation

Sequence of MLK3 (Q16584 whole entry): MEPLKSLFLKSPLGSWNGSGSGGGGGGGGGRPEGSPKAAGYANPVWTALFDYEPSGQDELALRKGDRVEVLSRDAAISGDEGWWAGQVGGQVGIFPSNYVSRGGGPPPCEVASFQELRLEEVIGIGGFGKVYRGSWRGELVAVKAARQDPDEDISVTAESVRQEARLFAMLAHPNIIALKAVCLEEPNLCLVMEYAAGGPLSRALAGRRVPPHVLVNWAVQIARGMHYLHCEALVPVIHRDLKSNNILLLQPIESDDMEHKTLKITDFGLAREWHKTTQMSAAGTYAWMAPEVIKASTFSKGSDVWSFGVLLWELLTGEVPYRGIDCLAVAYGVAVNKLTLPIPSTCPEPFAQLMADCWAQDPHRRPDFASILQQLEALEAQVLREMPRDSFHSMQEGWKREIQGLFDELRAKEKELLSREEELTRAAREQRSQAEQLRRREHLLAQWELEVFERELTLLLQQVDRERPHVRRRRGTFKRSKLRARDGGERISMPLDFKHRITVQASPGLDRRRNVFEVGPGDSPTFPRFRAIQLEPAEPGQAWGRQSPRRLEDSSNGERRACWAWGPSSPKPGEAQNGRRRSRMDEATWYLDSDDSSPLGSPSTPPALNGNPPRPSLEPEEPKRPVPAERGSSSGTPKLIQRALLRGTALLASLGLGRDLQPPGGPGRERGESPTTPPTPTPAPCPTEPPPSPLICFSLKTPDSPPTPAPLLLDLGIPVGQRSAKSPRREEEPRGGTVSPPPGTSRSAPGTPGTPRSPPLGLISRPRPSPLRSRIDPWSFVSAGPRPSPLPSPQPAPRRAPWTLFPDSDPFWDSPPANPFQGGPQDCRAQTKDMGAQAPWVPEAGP

Row | SMILES | AUC Brain [1] | IC50 (MLK3; [2]) [nM] | IC50 (MLK3) [nM]
1 | COc1cc(-c2cnc3[nH]cc(-c4ccc5[nH]ccc5c4)c3c2)cc(OC)c1OC [Example 1, 3-(1H-indol-5-yl)-5-(3,4,5-trimethoxyphenyl)-1H-pyrrolo[2,3-b]pyridine] | + (+ indicates ≧500) | – | 100 to 1000
2 | COc1cc(-c2cnc3[nH]cc(-c4ccc(N)nc4)c3c2)cc(OC)c1OC [Example 18, 5-(5-(3,4,5-trimethoxyphenyl)-1H-pyrrolo[2,3-b]pyridin-3-yl)pyridin-2-amine] | − (− indicates <500) | < 100 | –
3 | Nc1ncc(-c2cnc3[nH]cc(-c4ccc5[nH]ccc5c4)c3c2)cn1 [Example 9, 5-(3-(1H-indol-5-yl)-1H-pyrrolo[2,3-b]pyridin-5-yl)pyrimidin-2-amine] | + (+ indicates ≧500) | < 100 | –
4 | COc1cc(-c2cnc3[nH]cc(-c4cnc(N)nc4)c3c2)cc(OC)c1OC [Example 17, 5-(5-(3,4,5-trimethoxyphenyl)-1H-pyrrolo[2,3-b]pyridin-3-yl)pyrimidin-2-amine] | − (− indicates <500) | < 100 | –

Other lines, results leading:

Row | AUC Brain [1] | IC50 (MLK3; [2]) [nM] | IC50 (MLK3) [nM] | SMILES
5 | − (− indicates <500) | < 100 | – | Nc1ccc(-c2cnc3[nH]cc(-c4ccc5[nH]ccc5c4)c3c2)cn1 [Example 4, 5-(3-(1H-indol-5-yl)-1H-pyrrolo[2,3-b]pyridin-5-yl)pyridin-2-amine]
6 | + (+ indicates ≧500) | – | < 100 | CN1CCN(Cc2ccc(-c3cnc4[nH]cc(-c5ccc6[nH]ccc6c5)c4c3)cc2)CC1 [Example 32, 3-(1H-indol-5-yl)-5-(4-((4-methylpiperazin-1-yl)methyl)phenyl)-1H-pyrrolo[2,3-b]pyridine]
